Test results taken from patent publication US9891237B2, “Fluorescent sensor for metal cation detection based on 2-(2′-hydroxyphenyl)benzazole containing a Schiff base moiety” (priority 2013, dated 2018).

Key:
[1] = tested on: human cancer cells (HepG2) and human umbilical vein endothelial cells (HUVECs); experiment: Confocal fluorescence imaging of intracellular Zn^2+ with sensor 4; type: cell-based
Experimental: FIG. 8A provides confocal fluorescence images of Human mesenchymal stem cells (hMSCs) excited with a 488 laser. The image were collected at bright field on an Olympus FV1000-Filter Confocal Microscopy. a→b: the cells were incubated with dye 4 for 60 mins at 37° C.
FIG. 8B provides confocal fluorescence images of Human mesenchymal stem cells (hMSCs) excited with a 488 laser. The images were collected at green channel (535-565 nm) on an Olympus FV1000-Filter Confocal Microscopy. a→b: the cells were incubated with dye 4 for 60 mins at 37° C.
(§1) FIG. 8C provides confocal fluorescence images of Human mesenchymal stem cells (hMSCs) excited with a 488 laser. The images were collected at bright field on an Olympus FV1000-Filter Confocal Microscopy. c→d: the cells were first treated with Zn(OAc)2 (30 μM) for 30 mins and further exposed to dye 4 (10 μM) for another 60 mins at 37° C.
as §1, with “8D” for “8C”, “green channel (535-565 nm)” for “at bright field”, “Microscopy.” for “Microscopy. c→d:”
To illustrate the potential biological application, sensor 4 was applied to visualize intracellular Zn^2+ in both human cancer cells (HepG2) and human umbilical vein endothelial cells (HUVECs) (See FIGS. 8A-D). FIGS. 8A-D show confocal fluorescence images of Human mesenchymal stem cells (hMSCs) excited with a 488 laser. The images were collected at bright field (a and c) and green channel (535-565 nm; b and d) on an Olympus FV1000-Filter Confocal Microscopy. a→b: the cells were incubated with dye 4 for 60 mins at 37° C.; c→d: the cells were first treated with Zn(OAc)2 (30 μM) for 30 mins and further exposed to dye 4 (10 μM) for another 60 mins at 37° C. For this purpose, cells were first incubated with 30 μM of Zn^2+ for 30 mins and then further treated with 10 μM dye 4 for another […]. […]

[2] = UV-vis absorption and fluorescence response/titration of 4 with Zn^2+ in EtOH/HEPES; type: binding
Experimental: (§2) FIG. 2 provides an absorbance spectra of 4 (10 μM) in EtOH/HEPES (10 mM) (1:1) (pH=7.2), upon addition of 5 equiv. of different cations.
(§3) FIG. 3 provides a fluorescence spectra of 4 (10 μM) in EtOH:HEPES=1:1 (pH=7.2) upon addition of 5 equiv. of different ions.
(§4) The binding property of 4 to Zn^2+ cation was examined in EtOH/HEPES (FIG. 2). As the Zn^2+ cation was added, a new absorption band was generated at about 450 nm.
(§5) The ligand 4 gave a weak fluorescence peak at 580 nm (φfl=0.05). […] NIR emission was relatively stronger in pure methanol. The green fluorescence turn-on could be easily observed, making it also useful for naked eye detection (FIG. 3). […] In other words, the probe molecule 4 is silent to Cd^2+ cation, as its binding could not remove the phenolic proton (a necessary step to simultaneously shift the emission and turn on the ESIPT for NIR emission).
(§6) In order to clarify the interaction of 4 with different metal ions, the UV-vis absorption and fluorescence spectra of 4 (10 μM in EtOH:H2O=1:1 solutions) were studied by addition of 5 equiv. of different cations.
A It is important to note that, while the ligand 4 can bind Zn^2+ cation well, the same is not true for the Cd^2+ cation, although the atomic configuration ([Ar]3d^10 for Zn^2+ and [Kr]4d^10 for Cd^2+). On the basis of quick disappearance of the —OH signal at ˜10 ppm (^1H NMR in FIG. 5), the initial step might involve a weak interaction of metal cation with the imine —CH═N—, forming intermediate 5. […] The Zn^2+ cation in 6a could further interact with the adjacent hydroxyl group to form the fused 6-membered ring “B”, which requires twisting of the “HBO” fragment from the Schiff base fragment (ring A).

[3] = UV-vis absorption and fluorescence response of 4 to Al^3+
Experimental: as §2, §3, §4, §5, §6

[4] = Fluorescence of free ligand 4; type: physicochemical
Experimental: as §3, §5, §6

[5] = Absorption, emission and Stokes' shift of ligands and their zinc complexes (Table 1); type: physicochemical
[6] = UV-vis absorption and fluorescence response of 4 to 5 equiv. of different cations
Experimental: as §2, §3, §5, §6

[7] = UV-vis absorption and fluorescence response of 4 to Cd^2+; type: binding
Experimental: as §2, §3, §4, §5, §6
When Cd^2+ was used, the interaction pattern appeared to be quite different. […] Therefore, the equilibrium between 6b and 8 might occur without forming the fused rings A-B in 4-Cd. […]

[8] = UV-vis and fluorescence response of sensor 1 to mono- and divalent metal ions
Excerpt: (§7) (Cr: ΦF=0.63; Al: ΦF=0.31).

[9] = UV-vis and fluorescence response of sensor 1 to Al^3+ in H2O:EtOH=8:2
Excerpt: as §7

[10] = Absorption and fluorescence of free sensor 1 in aqueous medium; type: physicochemical
Experimental: Sensor 1 was synthesized by refluxing the corresponding dialdehyde (as described in W. Chen, Y. Xing, and Y. Pang, Org. Lett., 2011, 13, 1262) with hydrazinopyridine in EtOH for 2 hours, and was collected as yellow solid in >90% yield.
as §7

[11] = tested on: human mesenchymal stem cells (hMSCs); experiment: Confocal fluorescence imaging of intracellular Cr^3+ and Al^3+ with sensor 1; type: cell-based
Excerpt: FIG. 15A provides a confocal fluorescence images of Human mesenchymal stem cells (hMSCs) excited with a Diode laser (405 nm) on an Olympus FV-1000 laser scanning microscope. The images were collected at bright field. […]
FIG. 15B provides a confocal fluorescence images of Human mesenchymal stem cells (hMSCs) excited with a Diode laser (405 nm) on an Olympus FV-1000 laser scanning microscope. The images were collected at bright field. […] 15E was collected from 535-565 nm.
FIG. 15C provides a confocal fluorescence images of Human mesenchymal stem cells (hMSCs) excited with a Diode laser (405 nm) on an Olympus FV-1000 laser scanning microscope. The images were collected at bright field. […] 15F was collected from 505-525 nm
FIG. 15D provides a confocal fluorescence images of Human mesenchymal stem cells (hMSCs) excited with a Diode laser (405 nm) on an Olympus FV-1000 laser scanning microscope. The images were collected fluorescent channels. […]
FIG. 15E provides a confocal fluorescence images of Human mesenchymal stem cells (hMSCs) excited with a Diode laser (405 nm) on an Olympus FV-1000 laser scanning microscope. The images were collected fluorescent channels. […] 15E was collected from 535-565 nm.
FIG. 15F provides a confocal fluorescence images of Human mesenchymal stem cells (hMSCs) excited with a Diode laser (405 nm) on an Olympus FV-1000 laser scanning microscope. The images were collected fluorescent channels. […] 15F was collected from 505-525 nm
The potential application of 1 for both Cr^3+ and Al^3+ in biological samples was examined by using confocal fluorescence microscopy. […] Bright-field measurements confirmed that the cells, after being treated with Cr^3+/Al^3+ and 1, were viable throughout the imaging experiments. […] Response to Cr^3+ and Al^3+ ions with distinctly different colors (yellow-green and cyan, respectively) from the cell samples raised the prospect that the Cr^3+ and Al^3+ ions could be simultaneously determined and distinguished

[12] = Fluorescence response of sensor 1 to Fe^3+ in H2O:EtOH=8:2
Excerpt: as §7

[13] = 10 μM in EtOH:H2O=1:1, 5 equiv.

**Q.** With Cc1ccc2nc(-c3cc(O)c(C=NNc4ccccn4)cc3O)oc2c1 [Sensor 4] as the molecule, how does the cell permeability [1] read?
**A.** permeable to cells

**Q.** What about the “fluorescence in cells treated with Zn^2+ and the dye” value ([1]; 30 μM Zn^2+ 30 mins, then 10 μM dye) of the same molecule?
**A.** strong fluorescence

**Q.** What about the “fluorescence in cells treated with only the dye” value ([1]; dye only, green channel 535-565 nm, 488 laser) of the same molecule?
**A.** very weak fluorescence

**Q.** And the “φfl upon addition of Zn^2+” value ([2]; 1:1 EtOH/H2O)?
**A.** 0.26

**Q.** What about the “new absorption band upon Zn^2+ addition” value ([2]; EtOH/HEPES) of the same molecule?
**A.** about 450 nm

**Q.** And the “association constant Ka” value ([2]; from the fluorescence titration data)?
**A.** 228000 M⁻¹

**Q.** And the “Stokes' shift of NIR emission” value ([2]; upon Zn^2+ binding)?
**A.** ~260 nm

**Q.** And the “NIR emission peak upon addition of Zn^2+ (keto tautomer)” value ([2]; upon addition of Zn^2+)?
**A.** ~720 nm

**Q.** And the “emission peak upon addition of Zn^2+ (enol tautomer)” value ([2]; upon addition of Zn^2+)?
**A.** 545 nm

**Q.** What about the “selectivity toward Zn^2+ binding” value ([2]; versus other cations) of the same molecule?
**A.** excellent selectivity

**Q.** And the “enhanced emission induced by Al^3+” value [3]?
**A.** ~610 nm

**Q.** What about the “bathochromic shift of absorption on addition of other cations such as Al^3+” value ([3]; EtOH/HEPES) of the same molecule?
**A.** did not cause a notable bathochromic shift

**Q.** What about the “fluorescence peak of the ligand” value [4] of the same molecule?
**A.** 580 nm

**Q.** And the φfl [4]?
**A.** 0.05

**Q.** What about the “Absorption λmax (nm)” value [5] of the same molecule?
**A.** 413 nm

**Q.** And the “Stokes' shift” value [5]?
**A.** 6971 cm⁻¹

**Q.** And the “Emission λem (nm)” value ([5]; first or only emission peak)?
**A.** 580 nm

**Q.** What about the “Stokes' shift” value ([5]; value in brackets) of the same molecule?
**A.** 167 nm

**Q.** What about the “dual emission on addition of other cations (K^+, Na^+, Ag^+, Cd^2+, Ca^2+, Mg^2+, Pb^2+, Ni^2+, Hg^2+, Co^2+, Cu^2+, Cr^3+, Fe^3+, Al^3+)” value [6] of the same molecule?
**A.** did not induce the dual emissions at 545 and 720 nm

**Q.** What about the “fluorescence effect of Ag^+, Co^2+, Ni^2+ and Cu^2+” value [6, 13] of the same molecule?
**A.** quenched the fluorescence

**Q.** What about the “fluorescence effect of Cr^3+, Fe^3+ and Al^3+” value [6, 13] of the same molecule?
**A.** slightly increased the fluorescence

**Q.** What about the “red shift of fluorescence signal on addition of Cr^3+, Fe^3+ and Al^3+” value [6, 13] of the same molecule?
**A.** 25-37 nm

**Q.** And the “response to K^+, Na^+, Ca^2+ ions” value [6, 13]?
**A.** no response

**Q.** What about the “fluorescence response to Cd^2+ cation” value [7, 13] of the same molecule?
**A.** no observable fluorescence response

**Q.** And the “binding to Cd^2+ cation” value ([7]; absorption, EtOH/HEPES)?
**A.** weak binding

**Q.** For Oc1c(C=NNc2ccccn2)cc(C=NNc2ccccn2)cc1-c1nc2ccccc2o1 [Sensor 1], which “fluorescence effect of Mn^2+, Ni^2+, Pb^2+, Ba^2+, Ag^+, Hg^2+” value ([8]; 10 equiv.) is on record?
**A.** slight quenching

**Q.** What about the “response to Ca^2+, Mg^2+, Na^+ and K^+” value ([8]; 10 equiv.) of the same molecule?
**A.** negligible response

**Q.** What about the “change in UV-vis spectra on addition of M^+ and M^2+ cations” value ([8]; 10 equiv., except Cu^2+) of the same molecule?
**A.** almost no change

**Q.** What about the “fluorescence effect of Cu^2+” value ([8]; 10 equivalents) of the same molecule?
**A.** quenched the fluorescence

**Q.** What about the “fluorescence change on addition of divalent metal ions” value ([8]; 10 equivalents, H2O:EtOH=8:2, except Cu^2+) of the same molecule?
**A.** negligible fluorescence change

**Q.** What about the “Stokes' shift of the Al^3+ complex emission” value [9] of the same molecule?
**A.** 170 nm

**Q.** What about the “stability of fluorescence with Al^3+ over time” value [9] of the same molecule?
**A.** quite stable

**Q.** And the “fluorescence response upon addition of Al^3+” value ([9]; H2O:EtOH=8:2)?
**A.** immediate fluorescence turn-on

**Q.** What about the “ΦF with Al^3+” value ([9]; H2O:EtOH=8:2) of the same molecule?
**A.** 0.31

**Q.** What about the “emission λem with Al^3+” value ([9]; H2O:EtOH=8:2, blue-green) of the same molecule?
**A.** ~527 nm

**Q.** What about the “absorption major peak (π-π*)” value [10] of the same molecule?
**A.** 315 nm

**Q.** What about the “absorption minor peak (n-π*)” value [10] of the same molecule?
**A.** 432 nm

**Q.** What about the “Stokes' shift” value ([10]; free sensor, H2O:EtOH=8:2) of the same molecule?
**A.** 180 nm

**Q.** And the ΦF ([10]; free sensor, H2O:EtOH=8:2)?
**A.** 0.1

**Q.** What about the cell permeability [11] of the same molecule?
**A.** permeable to cells

**Q.** And the “intracellular fluorescence, control without added metal ions” value ([11]; 10 μM dye)?
**A.** negligible intracellular fluorescence

**Q.** And the “cell viability during imaging (bright-field)” value ([11]; after treatment with Cr^3+/Al^3+ and 1)?
**A.** viable

**Q.** What about the “intracellular fluorescence after Al^3+” value ([11]; then 10 μM sensor 30 minutes) of the same molecule?
**A.** significant increase in the fluorescence

**Q.** And the “intracellular fluorescence after Cr^3+” value ([11]; then 10 μM sensor 30 minutes)?
**A.** significant increase in the fluorescence

**Q.** What about the “Stokes' shift of the Cr^3+ complex emission” value of the same molecule?
**A.** 195 nm

**Q.** And the “new π-π* absorption band upon addition of Cr^3+” value?
**A.** about 358 nm

**Q.** What about the “selectivity as chemosensor for Cr^3+” value (10 equiv. other metal ions, then 10 equiv. Cr^3+) of the same molecule?
**A.** highly selective

**Q.** What about the “fluorescence response upon addition of Cr^3+” value (H2O:EtOH=8:2) of the same molecule?
**A.** immediate fluorescence turn-on

**Q.** And the “ΦF with Cr^3+” value (H2O:EtOH=8:2)?
**A.** 0.63

**Q.** What about the “emission λem with Cr^3+” value (H2O:EtOH=8:2, yellow green) of the same molecule?
**A.** ~556 nm

**Q.** What about the “fluorescence response upon addition of Fe^3+” value [12] of the same molecule?
**A.** immediate fluorescence turn-on

**Q.** What about the “time to quenching of fluorescence with Fe^3+” value [12] of the same molecule?
**A.** ≤ 5 min
